# Laboratory results from a melting point compilation (Tetko et al.; mined from patent text by program, amines drawn as free bases though some values may be those of a salt).
row,SMILES,melting point
1,CCCCCCNC(=O)OCCCCCCNC(=O)OC1CCN(C(=O)Oc2ccc(C3CCCCC3)cc2)CC1,94 to 96 °C
2,CC1(C)C(=O)Oc2ccc(OS(C)(=O)=O)cc21,120 to 121 °C
3,O=C(Nc1ccccc1)C1CCc2c(cnc3[nH]ncc23)C1 (stereo not given),> 300 °C
4,C#CCOc1cc(C(=O)O)cc(Cl)c1OCC#C,158 to 159 °C
5,CCN(CC)CCNc1nc(N)nc(-c2cc(Cl)ccc2Cl)n1,141 to 142 °C
6,COC(=O)c1cc2c3cc(Cl)ccc3n(C)c2s1,188 to 190 °C
7,Cc1nc(Nc2ccccc2)sc1-c1nc2ccccc2c(=O)n1-c1ccccc1,260 to 262 °C
8,CCN(c1ccc([N+](=O)[O-])cc1C#N)S(=O)(=O)c1ccc(C)cc1,135 to 136 °C
9,CC(=O)Nc1ccc(C(C)=O)c(F)c1F,149 to 152 °C
10,CCc1nc(/C=C\c2cn(-c3ccccc3)nc2OCc2ccc(OCc3nc(-c4cccc(C(=O)OC)c4)oc3C)c(OC)c2)cs1,125 to 126 °C
11,CCCCCCCCCCCCCCCCOCC(CC(CCCCCCCCCCCCCC)C(=O)NCCO)OCc1ccccc1 (stereo not given),39 to 40 °C
12,CCOC(=O)CC(=O)c1ccc([N+](=O)[O-])c(OC)c1,94 to 95 °C
13,Fc1ccc(-c2nn3c(c2-c2ccncc2)NCCC3)cc1,207 to 209 °C
14,CN1CCN(c2n[nH]c3ccccc23)CC1,111 to 113 °C
15,CN1CC(=O)N(c2cc(Cc3n[nH]c(=O)c4ccccc34)ccc2F)C(=O)C1,205 to 208 °C
16,CCc1nc2c(N)nc3ccccc3c2n1CCCCNC(=O)c1ccccc1,203 to 206 °C
17,Cc1cc(-n2nc(C(F)(F)F)cc2-c2ccc(S(C)(=O)=O)cc2)ccc1F,134 to 136 °C
18,FC(F)(F)c1cnc(CNC(=S)c2ccccc2Cl)c(Cl)c1,102 to 103 °C
19,Cn1nc(-c2ccccc2)c(Oc2ccc(N)cc2)c1-c1ccccc1,167 to 169 °C
20,COc1ccc(COC(=O)C2=C3[C@H]4CCCC[C@H]4[C@@H]3S[C@@H]3[C@H](NC(=O)Cc4ccccc4)C(=O)N23)cc1,234 to 236 °C

row,SMILES,melting point
1,C=C(C)C=NNC1=NS(=O)(=O)c2ccccc21,224 °C
2,CCCCCCCCCCc1ccc2ccc(C)c(O)c2c1,65 to 67 °C
3,CNS(=O)(=O)c1ccc(Oc2ccc(Cl)cc2)cc1,80 to 83 °C
4,COc1ccc([N+](=O)[O-])c2[nH]ccc(=O)c12,195 to 200 °C
5,Cc1nc(N)c2nc(CNC(=O)C3CC3)n(CC(C)C)c2c1C,182 to 184 °C
6,CC(=O)n1c2ccccc2c2[nH]c(=O)c3nccn3c21,340 °C
7,Cc1ccc(C#Cc2cc3ccccc3s2)s1,85 to 87 °C
8,O=C(OCc1ccccc1)c1ncoc1CCNC(=O)[C@H](O)Cc1ccccc1,106 to 108 °C
9,CC(C)(F)c1nc[nH]c(=O)c1Cl,168 to 171 °C
10,Cc1cc([N+](=O)[O-])ccc1S(=O)(=O)n1c(Br)nc(Br)c1C,187 to 189 °C
11,CC(=O)C(C(C)=O)C(=O)NS(=O)(=O)c1ccc(C)cc1,137 to 140 °C
12,N#CCc1cccc(C#CCOc2ccc(Br)cn2)c1,121 to 123 °C
13,O=C(Cc1ccccc1)NCc1cccc2c1CN(C1CCC(=O)NC1=O)C2=O (stereo not given),236 to 238 °C
14,CCc1nc2c(C)cc(C)nc2n1Cc1ccc(C(=C(Cl)c2nnn[nH]2)c2ccccc2)cc1,119 to 132 °C
15,COc1nc(Cl)nc(NC(C#N)C#N)n1,164 to 166 °C
16,CN1CCC(N(C)c2ncc3ncnc(Nc4ccc(N)c([N+](=O)[O-])c4)c3n2)CC1,242 to 246 °C
17,COC(=O)C(NS(=O)(=O)c1ccc(-c2ccc([N+](=O)[O-])cc2)cc1)C(C)C (stereo not given),144 to 146 °C
18,ClCc1cn(C(c2ccccc2)(c2ccccc2)c2ccccc2)cn1,88 to 91 °C
19,Cc1c(N2CC(F)[C@](C)(N)C2)c(F)cc2c(=O)c(C(=O)O)cn([C@@H]3C[C@@H]3F)c12 (stereo not given in full),215 to 217 °C
20,C1COCCOCCNCCOCC2(COCCN1)COC2,147 to 150 °C
